#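 Growth conditions: 96-well plates. Treatment: test compound, 48 hours, 5 concentrations. Analysis: linear interpolation between bracketing concentrations; unreached endpoints set to highest concentration. The concentration for 50% growth inhibition is given as GI50. TGI: concentration producing complete growth inhibition.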
# Assays:
# Experiment in all cases: NCI anticancer screen, dose series, 48 h
# 786-0 renal = system: 786-0 renal
# A498 renal = system: A498 renal
# A549 NSCLC = system: A549 NSCLC
# ACHN renal = system: ACHN renal
# BT-549 breast = system: BT-549 breast
# CAKI-1 renal = system: CAKI-1 renal
# CCRF-CEM leukemia = system: CCRF-CEM leukemia
# COLO 205 colon = system: COLO 205 colon
# DU-145 prostate = system: DU-145 prostate
# HCC-2998 colon = system: HCC-2998 colon
# HCT-116 colon = system: HCT-116 colon
# HCT-15 colon = system: HCT-15 colon
# HL-60(TB) leukemia = system: HL-60(TB) leukemia
# HOP-62 NSCLC = system: HOP-62 NSCLC
# HOP-92 NSCLC = system: HOP-92 NSCLC
# HS 578T breast = system: HS 578T breast
# HT29 colon = system: HT29 colon
# IGROV1 ovarian = system: IGROV1 ovarian
# K-562 leukemia = system: K-562 leukemia
# KM12 colon = system: KM12 colon
# LOX IMVI melanoma = system: LOX IMVI melanoma
# M14 melanoma = system: M14 melanoma
# MCF7 breast = system: MCF7 breast
# MDA-MB-231 breast = system: MDA-MB-231 breast
# MDA-MB-435 = system: MDA-MB-435
# MDA-N = system: MDA-N
# MOLT-4 leukemia = system: MOLT-4 leukemia
# NCI-H226 lung = system: NCI-H226 lung
# NCI-H23 lung = system: NCI-H23 lung
# NCI-H460 lung = system: NCI-H460 lung
# NCI/ADR-RES ovarian = system: NCI/ADR-RES ovarian
# OVCAR-3 ovarian = system: OVCAR-3 ovarian
# OVCAR-4 ovarian = system: OVCAR-4 ovarian
# OVCAR-5 ovarian = system: OVCAR-5 ovarian
# OVCAR-8 ovarian = system: OVCAR-8 ovarian
# PC-3 prostate = system: PC-3 prostate
# RPMI-8226 leukemia = system: RPMI-8226 leukemia
# RXF 393 renal = system: RXF 393 renal
# SF-268 CNS = system: SF-268 CNS
# SF-539 CNS = system: SF-539 CNS
# SK-MEL-2 melanoma = system: SK-MEL-2 melanoma
# SK-MEL-28 melanoma = system: SK-MEL-28 melanoma
# SK-MEL-5 melanoma = system: SK-MEL-5 melanoma
# SK-OV-3 ovarian = system: SK-OV-3 ovarian
# SN12C renal = system: SN12C renal
# SNB-19 CNS = system: SNB-19 CNS
# SNB-75 CNS = system: SNB-75 CNS
# SR leukemia = system: SR leukemia
# SW-620 colon = system: SW-620 colon
# T-47D breast = system: T-47D breast
# U251 CNS = system: U251 CNS
# UACC-257 melanoma = system: UACC-257 melanoma
# UACC-62 melanoma = system: UACC-62 melanoma
# EKVX NSCLC = system: EKVX NSCLC
# MALME-3M melanoma = system: MALME-3M melanoma
# NCI-H522 lung = system: NCI-H522 lung
# SF-295 CNS = system: SF-295 CNS
# TK-10 renal = system: TK-10 renal
# UO-31 renal = system: UO-31 renal
smiles,measurement,setting,value
C#C[C@]1(O)CC[C@H]2[C@@H]3CCC4=C/C(=N/NC(=O)c5cccc6cc7ccccc7nc56)CC[C@@H]4[C@H]3CC[C@@]21CC,TGI,786-0 renal,> 100 µM
same,TGI,A498 renal,> 100 µM
same,TGI,A549 NSCLC,> 100 µM
same,TGI,ACHN renal,> 100 µM
same,TGI,BT-549 breast,> 100 µM
same,TGI,CAKI-1 renal,> 100 µM
same,TGI,CCRF-CEM leukemia,> 100 µM
same,TGI,COLO 205 colon,> 100 µM
same,TGI,DU-145 prostate,> 100 µM
same,TGI,HCC-2998 colon,> 100 µM
same,TGI,HCT-116 colon,> 100 µM
same,TGI,HCT-15 colon,> 100 µM
same,TGI,HL-60(TB) leukemia,> 100 µM
same,TGI,HOP-62 NSCLC,> 100 µM
same,TGI,HOP-92 NSCLC,> 100 µM
same,TGI,HS 578T breast,> 100 µM
same,TGI,HT29 colon,> 100 µM
same,TGI,IGROV1 ovarian,> 100 µM
same,TGI,K-562 leukemia,> 100 µM
same,TGI,KM12 colon,> 100 µM
same,TGI,LOX IMVI melanoma,> 100 µM
same,TGI,M14 melanoma,> 100 µM
same,TGI,MCF7 breast,> 100 µM
same,TGI,MDA-MB-231 breast,> 100 µM
same,TGI,MDA-MB-435,> 100 µM
same,TGI,MDA-N,> 100 µM
same,TGI,MOLT-4 leukemia,> 100 µM
same,TGI,NCI-H226 lung,> 100 µM
same,TGI,NCI-H23 lung,> 100 µM
same,TGI,NCI-H460 lung,> 100 µM
same,TGI,NCI/ADR-RES ovarian,> 100 µM
same,TGI,OVCAR-3 ovarian,> 100 µM
same,TGI,OVCAR-4 ovarian,> 100 µM
same,TGI,OVCAR-5 ovarian,> 100 µM
same,TGI,OVCAR-8 ovarian,> 100 µM
same,TGI,PC-3 prostate,> 100 µM
same,TGI,RPMI-8226 leukemia,> 100 µM
same,TGI,RXF 393 renal,> 100 µM
same,TGI,SF-268 CNS,> 100 µM
same,TGI,SF-539 CNS,> 100 µM
same,TGI,SK-MEL-2 melanoma,> 100 µM
same,TGI,SK-MEL-28 melanoma,> 100 µM
same,TGI,SK-MEL-5 melanoma,63.7 µM
same,TGI,SK-OV-3 ovarian,> 100 µM
same,TGI,SN12C renal,> 100 µM
same,TGI,SNB-19 CNS,> 100 µM
same,TGI,SNB-75 CNS,> 100 µM
same,TGI,SR leukemia,> 100 µM
same,TGI,SW-620 colon,> 100 µM
same,TGI,T-47D breast,66.2 µM
same,TGI,U251 CNS,> 100 µM
same,TGI,UACC-257 melanoma,> 100 µM
same,TGI,UACC-62 melanoma,> 100 µM
CC1(C)OC(CP(c2ccccc2)c2ccccc2)C(CP(c2ccccc2)c2ccccc2)O1 (configuration not stated),TGI,786-0 renal,> 100 µM
same,TGI,A498 renal,> 100 µM
same,TGI,A549 NSCLC,> 100 µM
same,GI50,ACHN renal,2.98 µM
same,TGI,ACHN renal,> 100 µM
same,TGI,BT-549 breast,> 100 µM
same,TGI,CAKI-1 renal,> 100 µM
same,TGI,CCRF-CEM leukemia,45.5 µM
same,TGI,COLO 205 colon,2.75 µM
same,TGI,DU-145 prostate,> 55.5 µM
same,TGI,EKVX NSCLC,> 100 µM
same,TGI,HCC-2998 colon,> 100 µM
same,TGI,HCT-116 colon,> 100 µM
same,TGI,HCT-15 colon,> 100 µM
same,TGI,HL-60(TB) leukemia,1.84 µM
same,GI50,HOP-62 NSCLC,0.56 µM
same,TGI,HOP-62 NSCLC,> 100 µM
same,TGI,HOP-92 NSCLC,> 27.7 µM
same,TGI,HS 578T breast,> 100 µM
same,TGI,HT29 colon,> 100 µM
same,TGI,IGROV1 ovarian,> 100 µM
same,TGI,K-562 leukemia,> 100 µM
same,TGI,KM12 colon,> 38.1 µM
same,TGI,LOX IMVI melanoma,> 100 µM
same,TGI,M14 melanoma,> 100 µM
same,TGI,MALME-3M melanoma,41.1 µM
same,TGI,MCF7 breast,> 100 µM
same,TGI,MDA-MB-231 breast,> 100 µM
same,TGI,MDA-MB-435,> 100 µM
same,TGI,MDA-N,> 28.1 µM
same,TGI,MOLT-4 leukemia,> 100 µM
same,TGI,NCI-H226 lung,> 100 µM
same,TGI,NCI-H23 lung,> 22.5 µM
same,TGI,NCI-H460 lung,> 100 µM
same,TGI,NCI-H522 lung,> 22.7 µM
same,TGI,NCI/ADR-RES ovarian,> 100 µM
same,TGI,OVCAR-3 ovarian,> 100 µM
same,TGI,OVCAR-4 ovarian,> 87.3 µM
same,TGI,OVCAR-5 ovarian,7.73 µM
same,TGI,OVCAR-8 ovarian,> 100 µM
same,TGI,PC-3 prostate,> 100 µM
same,GI50,RPMI-8226 leukemia,2.75 µM
same,TGI,RPMI-8226 leukemia,14.4 µM
same,TGI,SF-268 CNS,> 100 µM
same,TGI,SF-295 CNS,> 100 µM
same,TGI,SF-539 CNS,> 100 µM
same,TGI,SK-MEL-2 melanoma,10.7 µM
same,TGI,SK-MEL-28 melanoma,> 100 µM
same,TGI,SK-MEL-5 melanoma,> 26.4 µM
same,TGI,SK-OV-3 ovarian,> 100 µM
same,TGI,SN12C renal,> 100 µM
same,TGI,SNB-19 CNS,> 100 µM
same,GI50,SNB-75 CNS,0.865 µM
same,TGI,SNB-75 CNS,5.33 µM
same,TGI,SR leukemia,> 100 µM
same,TGI,SW-620 colon,> 100 µM
same,GI50,T-47D breast,0.173 µM
same,TGI,T-47D breast,0.947 µM
same,TGI,TK-10 renal,> 100 µM
same,TGI,U251 CNS,> 100 µM
same,TGI,UACC-257 melanoma,> 100 µM
same,TGI,UACC-62 melanoma,> 100 µM
same,GI50,UO-31 renal,2.78 µM
same,TGI,UO-31 renal,> 100 µM
